Source: patent publication US10105384B2, “Nucleic acids targeting TCTP for use in the treatment of chemo- or hormone-resistant cancers” (INSTITUT NATIONAL DE LA SANTE ET DE LA RECHERCHE MEDICALE …, priority 2010, dated 2018)
d = 2'-deoxy (DNA); r = 2'-OH (RNA)

Key:
TCTP = TCTP protein level by Western blot in PC-3 cells treated with siRNA or ASO; type: cell-based, human
Method: Western Blot analysis was performed as described previously (Rocchi et al., 2004, Cancer Res. 64:6595-602) with 1:5000 rabbit anti-Hsp27 polyclonal antibody (Assay Designs, Villeurbanne, France), 1:2000 rabbit TCTP polyclonal antibody (Abcam Inc., Cambridge, UK), 1:250 rabbit anti-MSL1v1 polyclonal antibody (Abcam Inc.), 1:500 mouse anti-ubiquitin monoclonal antibody (Santa Cruz Biotechnology Inc., Heidelberg, Germany) or 1:1000 rabbit anti-caspase-3 polyclonal antibody (Cell Signalling Technology Inc., Danvers, USA). Loading levels were normalized using 1:5000 rabbit anti-glyceraldehyde-3-phosphate dehydrogenase polyclonal (Abcam Inc.) or 1:2500 mouse anti-vinculine monoclonal antibodies (Sigma Chemical Co., St Louis, Mo., USA). […]
To determine whether the inhibition of TCTP expression affects CR progression in vitro, ASO- or siRNA-induced inhibition of TCTP expression was determined by Western blot analysis. […] Total RNA was extracted and TCTP levels were analyzed by qRT-PCR. After the normalization of TCTP mRNA with 18S rRNA levels, results were analysed with the 2(-Delta Delta C(T)) Method (FIG. 5A). Each sample was analyzed in triplicate. ** differs from PC-3 transfected with control-siRNA (P≤0.01) and *** with ASO control (P≤0.001) using Statview software.

PC-3 cells = test: Viability assay by Invitrogen Countess (trypan blue), PC-3 cells; type: cell-based, human
Method: PC-3 cells were treated with 70, 100 or 200 nM of TCTP ASO or control. 3 days after, the cells were harvested, combined with 10 μl of trypan blue and counted with Invitrogen Countess. Viability, cell concentration and size were recorded for each sample following the manufacturer's instructions.
Flow cytometry was used to quantify the percentage of cells in each cell cycle phase three days after the siRNA treatment. After the treatment of PC-3 cells with 5 nM TCTP siRNA for 1 day, the fraction of cells undergoing apoptosis (sub-G1/G0 fraction) was 25% higher after treatment with 5 nM TCTP siRNA compared with scrambled control siRNA (**, P≤0.01; FIG. 6, upper panel). Using TCTP ASO treatment alone, we found an increase of 75% in sub-G0G1 fraction (***, P≤0.001; FIG. 6, middle and bottom panel), enhanced by the 50 nM docetaxel treatment (90% in sub-G0-G1 fraction, ***, P≤0.001). […] The fraction of PC-3 in S phase was 20 to 40% lower after TCTP siRNA or ASO treatments respectively compared to the scrambled controls (FIG. 6). […] The rate of apoptotic PC-3 cells after TCTP silencing with different ASO concentrations was explored with the Invitrogen countess (FIG. 6 and FIG. 7A). PC-3 cells were treated with 70, 100 or 200 nM of TCTP ASO or control. Cells were harvested 3 days after treatment and […] of trypan blue was added before analysis with Invitrogen Countess. […] Moreover, TCTP has been reported to interact with caspase-3, thereby inhibiting caspase-3 activation (Gnanasekar et al., 2009, Int J Oncol. 34:1241-6). In order to investigate the effect of TCTP silencing on caspase-3 cleavage and activity, PC-3 cells were treated daily with 100 nM TCTP or scrambled ASO for 2 days. Cells were harvested 2 days after and proteins were extracted for western blotting with a caspase-3 antibody that recognizes both full-length and cleaved caspase-3.

LNCaP tumors = test: LNCaP tumor growth in vivo after castration in athymic nude mice
Method: Approximately 3.10^6 PC-3 cells and 10.10^6 LNCaP cells were inoculated subcutaneously with 0.1 mL of Dulbecco's Modified Eagle's Medium (Invitrogen) supplemented with 10% FCS for PC-3 or with 0.1 mL of Matrigel (BD Biosciences Discovery Labware) for LNCaP in the flank region of 4-week-old male athymic nude mice (Charles River, L'Arbresle, France) via a 23-gauge needle. When PC-3 tumors reached 50 mm^3, usually 3 to 4 weeks after injection, mice were randomly selected for treatment with TCTP ASO alone, scrambled ASO alone, TCTP ASO plus docetaxel or scrambled ASO plus docetaxel. Mice bearing LNCaP tumors between 200 and 300 mm^3 in volume were castrated via scrotal approach and randomly assigned to a treatment arm. Mice were treated beginning 1 week after castration with TCTP ASO or control ASO alone and serum PSA measurements were done weekly. For both experiments, each experimental group consisted in 10 mice and the tumor volume measurements were performed once weekly and calculated by the formula length×width×depth×0.5236 (Gleave et al., 1999, Clin Cancer Res 5:2891-8). After randomization, 10 mg/kg TCTP or scrambled ASO was injected intraperitoneally (i.p) once daily for 60 days for ASO monotherapy groups and 90 days for the ASO plus docetaxel groups. A total of 35 mg/kg docetaxel was administrated i.p. three times per week from days 7 to 14. Tumor volume measurements were performed once weekly and calculated by the formula length×width×depth×0.5236 (20). Data points were expressed as average tumor volume levels +/−standard error (SE). All animal procedures were performed in accordance with protocols approved by French laws and the European directives and with appropriate institutional certification.
Twenty male mice bearing LNCaP tumors were castrated 6 to 8 weeks after tumor implantation and were randomly selected for treatment with TCTP ASO of SEQ ID NO: 2 versus control ASO. Castration was done when tumors reached a mean of 200 mm3. Mean tumor volume and PSA were similar in both groups at the beginning of the treatment. Beginning 1 week after castration, 10 mg/kg of ASO was administered once daily by i.p. injection for 9 weeks. […] At sacrifice, tumor volume was 4-fold higher in control (1650, 15±281, 76 mm^3) compared with the TCTP ASO-treated group (397, 79±132, 61 mm^3; *, P≤0.05).

5′-AACCCGUCCGCGAUCUCCCdGdG-3′ (AACCCGUCCGCGAUCUCCCGG; siRNA; sugars from the 5' end r19 d2, backbone not given here) [TCTP siRNA, from Qiagen]
inhibition of TCTP protein (TCTP; siRNA at 5 nM): significant inhibition
rate of apoptotic cells (PC-3 cells; PC-3, TCTP siRNA): Same effects

5′-ACCAATGAGCGAGTCATCAA-3′ (phosphorothioate backbone, further chemistry not given here) [ASO10]
LNCaP tumor volume increase compared with control ASO (LNCaP tumors; 9 weeks after castration): increased more slowly
harvested tumors smaller in appearance (LNCaP tumors; after 9 weeks of TCTP ASO monotherapy): ¾
tumor volume in control compared with the TCTP ASO-treated group (LNCaP tumors; at sacrifice): 4 fold
side effects (animal behavior, body weight) (LNCaP tumors; castrated mice bearing LNCaP tumors, 9 weeks): No side effects
inhibition of TCTP protein (TCTP; ASO at 100 nM): significant inhibition
rate of apoptotic cells (PC-3 cells; PC-3, 70 nM ASO, three days after transfection): 100%
rate of apoptotic cells (PC-3 cells; PC-3, 100 nM ASO, three days after transfection): 200%
rate of apoptotic cells (PC-3 cells; PC-3, 200 nM ASO, three days after transfection): 300%
